Test results as given in patent publication US8759392B2, “Amides as inhibitors of human secreted phospholipase A2” (The Regents of the University of California, priority 2008, dated 2014).

How the values were obtained:
[1] = tested on: secreted PLA2; conditions: known inhibitors of FIG. 1; cited from earlier work
[2] = tested on: spinal cord injury (SCI); assay: Spinal cord injury (SCI) in mice
[3] = target: T1, human GVIA iPLA2 (Homo sapiens, UniProt O60733); assay: Mixed micelle-based assay, inhibition of GVIA iPLA2; assay type: biochemical
T1 sequence (O60733 1-806): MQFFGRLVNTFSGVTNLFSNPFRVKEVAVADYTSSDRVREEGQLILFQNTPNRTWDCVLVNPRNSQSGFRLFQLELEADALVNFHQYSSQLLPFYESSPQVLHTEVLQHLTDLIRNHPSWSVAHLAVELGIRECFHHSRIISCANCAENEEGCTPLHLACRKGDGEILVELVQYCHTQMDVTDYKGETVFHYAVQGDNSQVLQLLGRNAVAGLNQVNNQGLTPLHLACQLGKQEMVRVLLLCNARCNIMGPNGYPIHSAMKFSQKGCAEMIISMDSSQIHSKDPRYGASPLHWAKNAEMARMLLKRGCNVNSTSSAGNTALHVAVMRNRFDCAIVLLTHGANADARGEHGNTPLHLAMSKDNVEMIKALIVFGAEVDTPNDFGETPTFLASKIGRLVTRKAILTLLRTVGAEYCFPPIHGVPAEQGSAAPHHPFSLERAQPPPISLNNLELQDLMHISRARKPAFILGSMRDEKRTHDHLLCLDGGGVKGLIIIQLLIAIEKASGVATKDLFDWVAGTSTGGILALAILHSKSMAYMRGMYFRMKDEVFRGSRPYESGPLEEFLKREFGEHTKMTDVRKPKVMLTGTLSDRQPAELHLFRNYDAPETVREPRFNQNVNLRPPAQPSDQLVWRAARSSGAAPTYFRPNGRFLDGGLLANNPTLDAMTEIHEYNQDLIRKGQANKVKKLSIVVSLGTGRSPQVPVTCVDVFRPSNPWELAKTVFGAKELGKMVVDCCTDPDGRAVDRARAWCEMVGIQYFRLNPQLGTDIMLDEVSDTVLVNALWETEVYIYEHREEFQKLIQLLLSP
Method: (§1) The amides were tested for inhibition of human GIVA cPLA2, GVIA iPLA2 and GV sPLA2 using previously described mixed micelle-based assays. The resulting degrees of inhibition are presented as either percent inhibition or XI(50) values. […] The XI(50) is the mole fraction of the inhibitor in the total substrate interface required to inhibit the enzyme by 50%.

[4] = target: T2, human GIVA cPLA2 (Homo sapiens, UniProt P47712); assay: Mixed micelle-based assay, inhibition of GIVA cPLA2; assay type: biochemical
T2 sequence (P47712 1-749): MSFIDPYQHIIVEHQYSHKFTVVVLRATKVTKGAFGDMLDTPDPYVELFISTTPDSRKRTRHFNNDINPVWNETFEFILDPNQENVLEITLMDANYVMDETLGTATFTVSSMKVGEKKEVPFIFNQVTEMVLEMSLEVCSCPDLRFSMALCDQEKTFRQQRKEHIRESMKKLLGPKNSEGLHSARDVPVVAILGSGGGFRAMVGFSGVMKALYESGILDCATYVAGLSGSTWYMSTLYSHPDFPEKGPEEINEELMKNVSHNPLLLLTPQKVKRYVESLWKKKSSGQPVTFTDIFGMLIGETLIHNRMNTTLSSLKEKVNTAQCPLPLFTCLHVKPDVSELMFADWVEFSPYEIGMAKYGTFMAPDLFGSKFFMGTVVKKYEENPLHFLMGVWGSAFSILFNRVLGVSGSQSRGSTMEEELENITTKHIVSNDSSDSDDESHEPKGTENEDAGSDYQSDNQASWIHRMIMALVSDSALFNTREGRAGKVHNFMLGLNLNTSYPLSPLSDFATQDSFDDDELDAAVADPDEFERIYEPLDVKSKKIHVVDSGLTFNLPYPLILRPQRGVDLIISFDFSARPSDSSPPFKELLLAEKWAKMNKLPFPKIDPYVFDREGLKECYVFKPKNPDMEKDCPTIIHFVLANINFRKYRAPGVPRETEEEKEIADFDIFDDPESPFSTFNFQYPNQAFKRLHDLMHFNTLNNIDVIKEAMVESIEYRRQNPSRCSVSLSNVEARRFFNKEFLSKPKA
Method: as §1

[5] = target: T3, human GV sPLA2 (Homo sapiens, UniProt P39877); assay: Mixed micelle-based assay, inhibition of GV sPLA2; assay type: biochemical; conditions: for Inhibition (% at 0.091 mol fraction) sPLA2 GIIA/GV*: 0.091 mole fraction of inhibitor, average and standard error, n = 3
T3 sequence (P39877 21-138): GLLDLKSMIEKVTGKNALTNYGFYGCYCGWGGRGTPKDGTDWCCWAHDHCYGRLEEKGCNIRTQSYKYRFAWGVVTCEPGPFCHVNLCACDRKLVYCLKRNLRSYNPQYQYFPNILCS
Method: FIG. 2 illustrates inhibition curve for an amide of the present disclosure in a mixed-micelle assay with human GV sPLA2. The amides were tested for inhibition of human GIVA cPLA2, GVIA iPLA2 and GV sPLA2 using previously described mixed micelle-based assays.

[6] = 0.091 mole fraction of inhibitor, average and standard error, n = 3

Compound	Inhibition of secreted PLA2 (in words) [1]	Myelin sparing (luxol fast blue) ([2]; 28 days after SCI, […])	Locomotor function, 9-point Basso Mouse Scale (BMS) score ([2]; administration started 1 hour after SCI, vs vehicle treated mice, significant from day 5 dpi through the follow up)	Activity on GVIA iPLA2 (in words) [3]	Activity on GIVA cPLA2 (in words) [4]	Activity on GV sPLA2 (in words) [5]	Inhibition (% at 0.091 mol fraction) sPLA2 GIIA/GV* [5] [%]	XI(50) GV sPLA2 ([5]; mole fraction of inhibitor in total substrate interface for 50% inhibition, non-linear regression (hyperbolic)) [mole fraction]	Inhibition (% at 0.091 mol fraction) iPLA2 GVIA [3, 6] [%]	XI(50) iPLA2 GVIA ([3]; mole fraction of inhibitor in total substrate interface required to inhibit the enzyme by 50%) [mole fraction]	Inhibition (% at 0.091 mol fraction) cPLA2 GIVA [4, 6]
CCC[C@H](CCC(=O)O)NC(=O)CCCCCCc1ccccc1 [Compound 2]	potent inhibitor	–	–	–	–	–	–	–	–	–	–
CCCC[C@H](CCC(=O)O)NC(=O)CCCCCCc1ccccc1 [Compound 9, (R)-4-(7-phenylheptanamido)octanoic acid]	–	significant myelin sparing	improved locomotor function	not affecting at all	not affecting at all	potent and selective GV sPLA2 inhibitor	> 95	0.003±0.0004	–	–	–
O=C(CCCCc1ccccc1)C(F)(F)C(F)(F)F [FKGK11, reference compound]	–	–	–	–	–	–	28 ± 1	–	> 95	0.0096 ± 0.0008	N.D. (N.D. signifies compounds with less than 25% inhibition (or no detectable inhibition))
